Test results: ChEMBL document CHEMBL1629608, “Variations in amino acid composition of antisense peptide-phosphorodiamidate morpholino oligomer affect potency against Escherichia coli in vitro and in vivo” (Antimicrob Agents Chemother, 2009)
Values after ≈ are worked out from the molar mass of the structure shown.

Key:
Escherichia coli [1] = assay: Antibacterial activity against Escherichia coli K-12 W3110 by microdilution method; assay type: functional; details: K-12 substr. W3110
Escherichia coli [2] = assay: Ratio of compound MIC to ampicillin MIC for Escherichia coli K-12 W3110; assay type: functional, K-12 substr. W3110

What does the source list for `Cc1cn([C@H]2CN(P(=O)(OC[C@@H]3CN(P(=O)(OC[C@@H]4CN(P(=O)(OC[C@@H]5CN(P(=O)(OC[C@@H]6CN(P(=O)(OC[C@@H]7CN(P(=O)(OC[C@@H]8CN(P(=O)(OC[C@@H]9CN(P(=O)(OC[C@@H]%10CNC[C@H](n%11cnc%12c(=O)[nH]c(N)nc%12%11)O%10)N(C)C)C[C@H](n%10cc(C)c(=O)[nH]c%10=O)O9)N(C)C)C[C@H](n9cnc%10c(=O)[nH]c(N)nc%109)O8)N(C)C)C[C@H](n8cnc9c(N)ncnc98)O7)N(C)C)C[C@H](n7cc(C)c(=O)[nH]c7=O)O6)N(C)C)C[C@H](n6cnc7c(N)ncnc76)O5)N(C)C)C[C@H](n5cnc6c(=O)[nH]c(N)nc65)O4)N(C)C)C[C@H](n4ccc(N)nc4=O)O3)N(C)C)C[C@@H](COP(=O)(N(C)C)N3C[C@@H](COP(=O)(N(C)C)N4C[C@@H](COP(=O)(N(C)C)N5CCN(C(=O)CCNC(=O)CCCCCNC(=O)[C@H](Cc6ccccc6)NC(=O)[C@H](Cc6ccccc6)NC(=O)[C@H](CCCNC(=N)N)NC(=O)[C@H](Cc6ccccc6)NC(=O)[C@H](Cc6ccccc6)NC(=O)[C@H](CCCNC(=N)N)NC(=O)[C@H](Cc6ccccc6)NC(=O)[C@H](Cc6ccccc6)NC(=O)[C@@H](N)CCCNC(=N)N)CC5)O[C@@H](n5ccc(N)nc5=O)C4)O[C@@H](n4cc(C)c(=O)[nH]c4=O)C3)O2)c(=O)[nH]c1=O` (stereo partly drawn)?
MIC (Escherichia coli [1]): 2.5 µM (≈ 13.3 µg/mL); Ratio (Escherichia coli [2]): 2.5

`Cc1cn([C@H]2CN(P(=O)(OC[C@@H]3CN(P(=O)(OC[C@@H]4CN(P(=O)(OC[C@@H]5CN(P(=O)(OC[C@@H]6CN(P(=O)(OC[C@@H]7CN(P(=O)(OC[C@@H]8CN(P(=O)(OC[C@@H]9CN(P(=O)(OC[C@@H]%10CNC[C@H](n%11cnc%12c(=O)[nH]c(N)nc%12%11)O%10)N(C)C)C[C@H](n%10cc(C)c(=O)[nH]c%10=O)O9)N(C)C)C[C@H](n9cnc%10c(=O)[nH]c(N)nc%109)O8)N(C)C)C[C@H](n8cnc9c(N)ncnc98)O7)N(C)C)C[C@H](n7cc(C)c(=O)[nH]c7=O)O6)N(C)C)C[C@H](n6cnc7c(N)ncnc76)O5)N(C)C)C[C@H](n5cnc6c(=O)[nH]c(N)nc65)O4)N(C)C)C[C@H](n4ccc(N)nc4=O)O3)N(C)C)C[C@@H](COP(=O)(N(C)C)N3C[C@@H](COP(=O)(N(C)C)N4C[C@@H](COP(=O)(N(C)C)N5CCN(C(=O)CCNC(=O)CCCCCNC(=O)[C@H](CCCCN)NC(=O)[C@H](Cc6ccccc6)NC(=O)[C@H](Cc6ccccc6)NC(=O)[C@H](CCCCN)NC(=O)[C@H](Cc6ccccc6)NC(=O)[C@H](Cc6ccccc6)NC(=O)[C@H](CCCCN)NC(=O)[C@H](Cc6ccccc6)NC(=O)[C@H](Cc6ccccc6)NC(=O)[C@@H](N)CCCCN)CC5)O[C@@H](n5ccc(N)nc5=O)C4)O[C@@H](n4cc(C)c(=O)[nH]c4=O)C3)O2)c(=O)[nH]c1=O` (stereo partly drawn) was tested. Which MIC (Escherichia coli [1]) did it give?
The MIC was 10 µM (≈ 53.6 µg/mL).

With `Cc1cn([C@H]2CN(P(=O)(OC[C@@H]3CN(P(=O)(OC[C@@H]4CN(P(=O)(OC[C@@H]5CN(P(=O)(OC[C@@H]6CN(P(=O)(OC[C@@H]7CN(P(=O)(OC[C@@H]8CN(P(=O)(OC[C@@H]9CN(P(=O)(OC[C@@H]%10CNC[C@H](n%11cnc%12c(=O)[nH]c(N)nc%12%11)O%10)N(C)C)C[C@H](n%10cc(C)c(=O)[nH]c%10=O)O9)N(C)C)C[C@H](n9cnc%10c(=O)[nH]c(N)nc%109)O8)N(C)C)C[C@H](n8cnc9c(N)ncnc98)O7)N(C)C)C[C@H](n7cc(C)c(=O)[nH]c7=O)O6)N(C)C)C[C@H](n6cnc7c(N)ncnc76)O5)N(C)C)C[C@H](n5cnc6c(=O)[nH]c(N)nc65)O4)N(C)C)C[C@H](n4ccc(N)nc4=O)O3)N(C)C)C[C@@H](COP(=O)(N(C)C)N3C[C@@H](COP(=O)(N(C)C)N4C[C@@H](COP(=O)(N(C)C)N5CCN(C(=O)CCNC(=O)CCCCCNC(=O)[C@@H](Cc6ccccc6)NC(=O)[C@@H](Cc6ccccc6)NC(=O)[C@@H](CCCNC(=N)N)NC(=O)[C@@H](Cc6ccccc6)NC(=O)[C@@H](Cc6ccccc6)NC(=O)[C@@H](CCCNC(=N)N)NC(=O)[C@@H](Cc6ccccc6)NC(=O)[C@H](Cc6ccccc6)NC(=O)[C@H](N)CCCNC(=N)N)CC5)O[C@@H](n5ccc(N)nc5=O)C4)O[C@@H](n4cc(C)c(=O)[nH]c4=O)C3)O2)c(=O)[nH]c1=O` (stereo partly drawn) as the compound, how does the MIC (Escherichia coli [1]) read?
The MIC was 5 µM (≈ 26.6 µg/mL).

With `Cc1cn([C@H]2CN(P(=O)(OC[C@@H]3CN(P(=O)(OC[C@@H]4CN(P(=O)(OC[C@@H]5CN(P(=O)(OC[C@@H]6CN(P(=O)(OC[C@@H]7CN(P(=O)(OC[C@@H]8CN(P(=O)(OC[C@@H]9CN(P(=O)(OC[C@@H]%10CNC[C@H](n%11cnc%12c(=O)[nH]c(N)nc%12%11)O%10)N(C)C)C[C@H](n%10cc(C)c(=O)[nH]c%10=O)O9)N(C)C)C[C@H](n9cnc%10c(=O)[nH]c(N)nc%109)O8)N(C)C)C[C@H](n8cnc9c(N)ncnc98)O7)N(C)C)C[C@H](n7cc(C)c(=O)[nH]c7=O)O6)N(C)C)C[C@H](n6cnc7c(N)ncnc76)O5)N(C)C)C[C@H](n5cnc6c(=O)[nH]c(N)nc65)O4)N(C)C)C[C@H](n4ccc(N)nc4=O)O3)N(C)C)C[C@@H](COP(=O)(N(C)C)N3C[C@@H](COP(=O)(N(C)C)N4C[C@@H](COP(=O)(N(C)C)N5CCN(C(=O)CCNC(=O)CCCCCNC(=O)[C@H](CCCNC(=N)N)NC(=O)[C@@H](NC(=O)[C@@H](NC(=O)[C@H](CCCNC(=N)N)NC(=O)[C@@H](NC(=O)[C@@H](NC(=O)[C@H](CCCNC(=N)N)NC(=O)[C@@H](NC(=O)[C@@H](NC(=O)[C@@H](N)CCCNC(=N)N)C(C)C)C(C)C)C(C)C)C(C)C)C(C)C)C(C)C)CC5)O[C@@H](n5ccc(N)nc5=O)C4)O[C@@H](n4cc(C)c(=O)[nH]c4=O)C3)O2)c(=O)[nH]c1=O` (stereo partly drawn) as the compound, how does the MIC (Escherichia coli [1]) read?
Its MIC is > 80 µM.

How did the MIC (Escherichia coli [1]) turn out when `Cc1cn([C@H]2CN(P(=O)(OC[C@@H]3CN(P(=O)(OC[C@@H]4CN(P(=O)(OC[C@@H]5CN(P(=O)(OC[C@@H]6CN(P(=O)(OC[C@@H]7CN(P(=O)(OC[C@@H]8CN(P(=O)(OC[C@@H]9CN(P(=O)(OC[C@@H]%10CNC[C@H](n%11cnc%12c(=O)[nH]c(N)nc%12%11)O%10)N(C)C)C[C@H](n%10cc(C)c(=O)[nH]c%10=O)O9)N(C)C)C[C@H](n9cnc%10c(=O)[nH]c(N)nc%109)O8)N(C)C)C[C@H](n8cnc9c(N)ncnc98)O7)N(C)C)C[C@H](n7cc(C)c(=O)[nH]c7=O)O6)N(C)C)C[C@H](n6cnc7c(N)ncnc76)O5)N(C)C)C[C@H](n5cnc6c(=O)[nH]c(N)nc65)O4)N(C)C)C[C@H](n4ccc(N)nc4=O)O3)N(C)C)C[C@@H](COP(=O)(N(C)C)N3C[C@@H](COP(=O)(N(C)C)N4C[C@@H](COP(=O)(N(C)C)N5CCN(C(=O)CCNC(=O)CCCCCNC(=O)[C@H](CCCNC(=N)N)NC(=O)CCNC(=O)[C@H](CCCNC(=N)N)NC(=O)[C@H](CCCNC(=N)N)NC(=O)CCCCCNC(=O)[C@H](CCCNC(=N)N)NC(=O)NC(=O)[C@H](CCCNC(=N)N)NC(=O)CCNC(=O)[C@H](CCCNC(=N)N)NC(=O)[C@H](CCCNC(=N)N)NC(=O)CCCCCNC(=O)[C@@H](N)CCCNC(=N)N)CC5)O[C@@H](n5ccc(N)nc5=O)C4)O[C@@H](n4cc(C)c(=O)[nH]c4=O)C3)O2)c(=O)[nH]c1=O` (stereo partly drawn) was run?
Its MIC is 2.5 µM (≈ 14.1 µg/mL).

Which MIC (Escherichia coli [1]) does the source give for `Cc1cn([C@H]2CN(P(=O)(OC[C@@H]3CN(P(=O)(OC[C@@H]4CN(P(=O)(OC[C@@H]5CN(P(=O)(OC[C@@H]6CN(P(=O)(OC[C@@H]7CN(P(=O)(OC[C@@H]8CN(P(=O)(OC[C@@H]9CN(P(=O)(OC[C@@H]%10CNC[C@H](n%11cnc%12c(=O)[nH]c(N)nc%12%11)O%10)N(C)C)C[C@H](n%10cc(C)c(=O)[nH]c%10=O)O9)N(C)C)C[C@H](n9cnc%10c(=O)[nH]c(N)nc%109)O8)N(C)C)C[C@H](n8cnc9c(N)ncnc98)O7)N(C)C)C[C@H](n7cc(C)c(=O)[nH]c7=O)O6)N(C)C)C[C@H](n6cnc7c(N)ncnc76)O5)N(C)C)C[C@H](n5cnc6c(=O)[nH]c(N)nc65)O4)N(C)C)C[C@H](n4ccc(N)nc4=O)O3)N(C)C)C[C@@H](COP(=O)(N(C)C)N3C[C@@H](COP(=O)(N(C)C)N4C[C@@H](COP(=O)(N(C)C)N5CCN(C(=O)CCNC(=O)CCCCCNC(=O)[C@H](CCCNC(=N)N)NC(=O)CCCCCNC(=O)[C@@H](N)CCCNC(=N)N)CC5)O[C@@H](n5ccc(N)nc5=O)C4)O[C@@H](n4cc(C)c(=O)[nH]c4=O)C3)O2)c(=O)[nH]c1=O` (stereo partly drawn) here?
Its MIC is > 80 µM.

Which MIC (Escherichia coli [1]) does the source give for `Cc1cn([C@H]2CN(P(=O)(OC[C@@H]3CN(P(=O)(OC[C@@H]4CN(P(=O)(OC[C@@H]5CN(P(=O)(OC[C@@H]6CN(P(=O)(OC[C@@H]7CN(P(=O)(OC[C@@H]8CN(P(=O)(OC[C@@H]9CN(P(=O)(OC[C@@H]%10CNC[C@H](n%11cnc%12c(=O)[nH]c(N)nc%12%11)O%10)N(C)C)C[C@H](n%10cc(C)c(=O)[nH]c%10=O)O9)N(C)C)C[C@H](n9cnc%10c(=O)[nH]c(N)nc%109)O8)N(C)C)C[C@H](n8cnc9c(N)ncnc98)O7)N(C)C)C[C@H](n7cc(C)c(=O)[nH]c7=O)O6)N(C)C)C[C@H](n6cnc7c(N)ncnc76)O5)N(C)C)C[C@H](n5cnc6c(=O)[nH]c(N)nc65)O4)N(C)C)C[C@H](n4ccc(N)nc4=O)O3)N(C)C)C[C@@H](COP(=O)(N(C)C)N3C[C@@H](COP(=O)(N(C)C)N4C[C@@H](COP(=O)(N(C)C)N5CCN(C(=O)CCNC(=O)CCCCCNC(=O)[C@@H](N)CCCNC(=O)CCCCCNC(=O)[C@@H](N)CCCNC(=O)[C@@H](N)CCCNC(=O)CCCCCNC(=O)[C@@H](N)CCCNC(=O)[C@@H](N)CCCNC(=O)CCCCCNC(=O)[C@@H](N)CCCNC(=O)[C@@H](N)CCCNC(=O)CCCCCNC(=O)[C@@H](N)CCCN)CC5)O[C@@H](n5ccc(N)nc5=O)C4)O[C@@H](n4cc(C)c(=O)[nH]c4=O)C3)O2)c(=O)[nH]c1=O` (stereo partly drawn) here?
Its MIC is 10 µM (≈ 53.3 µg/mL).
